Values joined by “and” are separate entries in the source; they are usually repeats but may differ in a detail not shown here. Identical values can stand only once. Like-named read-outs stand apart in the source and are kept apart here.
What was measured:
[1] = system: malignant pleural mesothelioma cell line MSTO211H; test: Cell growth inhibitory activity, MSTO211H; format: cell-based; details: Table 8
Experimental: (§1) The cell growth inhibitory activity against a colorectal cancer cell line HCT116 was measured. As an index of cell growth inhibitory activity, a concentration at which cell growth was inhibited by 50% as compared with a control (IC50) was used. The method is as follows. HCT116 was added to a 6-well plate by 5×10^4, compounds having various concentrations were added after 24 hours, and the number of cells was counted after 72 hours of culture. As the control, DMSO was used in an amount equal to the amount added in accordance with the addition concentration of the highest-concentration compound. The number of cells at each concentration relative to the control was expressed as a percentage. In Table 3, the turbidities of the compounds are also indicated.
GO-Y198, GO-Y199, and GO-Y200 against malignant pleural mesothelioma cell lines NCI-H226 and MSTO211H was measured. The method is as described above. For comparison, the IC50 of cisplatin (CDDP), a cytocidal anticancer agent, is also indicated.

[2] = system: gastric cancer cell line SH-10-TC; test: Cell growth inhibitory activity, SH-10-TC; format: cell-based
Experimental: [The source words this procedure for another cell line and reports this cell line under the same test.] as §1, with “percentage.” for “percentage. In Table 3, the turbidities of the compounds are also indicated.”
(§2) The method is as described above.

[3] = system: breast cancer cell line HCC70; test: Cell growth inhibitory activity, HCC70; format: cell-based
Experimental: [The source words this procedure for another cell line and reports this cell line under the same test.] as §1, with “percentage.” for “percentage. In Table 3, the turbidities of the compounds are also indicated.”
as §2

[4] = system: colorectal cancer cell line DLD-1; test: Cell growth inhibitory activity, DLD-1; format: cell-based
Experimental: as §1, with “percentage.” for “percentage. In Table 3, the turbidities of the compounds are also indicated.”
as §2
(§3) The cell growth inhibitory activity (IC50) of each of curcumin, GO-Y199, and GO-Y206 against the colorectal cancer cell lines DLD-1 and HCT116 and the gastric cancer cell lines KATO III and H-111-TC was measured. The method is as described above.

[5] = system: cutaneous T-cell lymphoma cell line HUT78; test: Cell growth inhibitory activity, HUT78; format: cell-based; details: Table 10
Experimental: [The source words this procedure for another cell line and reports this cell line under the same test.] as §1, with “percentage.” for “percentage. In Table 3, the turbidities of the compounds are also indicated.”
as §2

[6] = system: gastric cancer cell line H-111-TC; test: Cell growth inhibitory activity, H-111-TC; format: cell-based; details: Table 6
Experimental: as §1
as §3, with “above. FIG. 8 indicates the results of cell growth inhibitory activity of these compounds against various cancer cell lines.” for “above.”

[7] = system: gastric cancer cell line KATO III; test: Cell growth inhibitory activity, KATO III; format: cell-based
Experimental: as §1, with “percentage.” for “percentage. In Table 3, the turbidities of the compounds are also indicated.”
as §2, §3

Safety and toxicity test = format: in vivo, mouse
Experimental: In vivo safety and toxicity of GO-Y199 were investigated. The method is as follows. As described above, the equivalent of 1 mg of GO-Y199 was injected into the tail vein, blood was collected from the orbital vein 7 days later, and a hemoglobin value (Hb), the number of white blood cells (WBC), and the number of platelets (Plt) were measured with Cell tac MEK-5258 (available from Nihon Kohden Corporation). A creatinine value (Cre), a total bilirubin value (T-Bil), and an AST value were subjected to outsourcing (measured in Skylight Biotech Inc.). FIG. 29 indicates change in body weight of mice after intravenous injection. FIG. 30 indicates photographs of the tail of the mouse after intravenous injection.

Kato III = test: Cytocidal effect, Kato III; format: cell-based; details: 2 μM and 5 μM, cells counted after 48 and 72 hours
Experimental: The method is as follows. Each cell line was added to 6-well plate by 5×10^4, 2 μM and 5 μM of GO-Y199 were added after 24 hours, and the number of cells was counted after 48 hours and 72 hours.

Caspase 3 = test: Influence on Caspase 3, immunohistochemistry; format: cell-based; details: 2 μM; 24 hours; control 1.0±0.1%
Experimental: The influence of GO-Y199 on NF-kB (p65) was investigated. The method is as follows. 3×10^6 cells of the HCT116 cell line were added to a 10-cm plate, 2 μM of GO-Y199 was added after 24 hours, the cells were collected after 24 hours, embedded in iPGell (GenOStaff), and fixed in formalin, paraffin blocks were then prepared, and immuno-histochemistry was performed with an anti-NF-kB (p65) antibody. In addition, 2 μM and 5 μM of GO-Y199 were added, lysates were collected after 24 hours, and an expression level of NF-kB (p65) was analyzed using an ELISA-plate (NF-kBp65 (pS536) SimpleStep-ELISA-kit, Abcam). An amount of protein was corrected by the absorbance of A 280 nm. The upper part of FIG. 14 indicates photographs of the control group and the GO-Y199 (2 μM)-added group after 24 hours. The lower part of FIG. 14 indicates results of the t-test of these groups after 24 hours. FIG. 15 indicates the comparison results of the NF-kB inhibitory effect of GO-Y199 (2 μM, 5 μM)-added groups with respect to the control group.
The influence of GO-Y199 on Caspase 3 was investigated. The method is as described above. Immunohistochemistry was performed with an anti-Caspase 3 antibody. Quantification of apoptosis-related protein was performed using M30 Apotosense ELISA (PEVIVA). The upper part of FIG. 20 indicates photographs of the control group and the GO-Y199 (2 μM)-added group after 24 hours. […]

[8] = individual mice, 7 days after 1 mg iv

Question: For `COCOc1cc(/C=C/C(=O)CC(SCCOCCOCCOCCOCc2cn([C@@H]3O[C@H](CO)[C@@H](O[C@@H]4O[C@H](CO)[C@H](O)[C@H](O)[C@H]4O)[C@H](O)[C@H]3O)nn2)c2cc(OCOC)cc(OCOC)c2)cc(OCOC)c1` (some centres unmarked) [GO-Y199], which IC50 [1] is on record?
Answer: 2.4 µM

Question: And the IC50 ([2]; Table 4, 72 hours)?
Answer: 1000 nM

Question: And the “GO-Y199 vs GO-Y030 (IC50 comparison), SH-10-TC” value ([2]; Table 5, ratio of IC50)?
Answer: 0.65

Question: What about the “GO-Y199 vs curcumin (IC50 comparison), SH-10-TC” value ([2]; Table 5, ratio of IC50) of the same compound?
Answer: 0.124

Question: What about the IC50 ([3]; Table 4, 72 hours) of the same compound?
Answer: 540 nM

Question: And the “GO-Y199 vs GO-Y030 (IC50 comparison), HCC70” value ([3]; Table 5, ratio of IC50)?
Answer: 0.24

Question: And the IC50 ([4]; Table 4, 72 hours, read-out: IC50 DLD-1)?
Answer: 0.26 µM

Question: And the “GO-Y199 vs GO-Y030 (IC50 comparison), DLD-1” value ([4]; Table 5, ratio of IC50)?
Answer: 0.36

Question: What about the “GO-Y199 vs curcumin (IC50 comparison), DLD-1” value ([4]; Table 5, ratio of IC50) of the same compound?
Answer: 0.014

Question: What about the IC50 ([4]; Table 6, read-out: IC50 (μM) DLD-1) of the same compound?
Answer: 0.85 µM

Question: What about the IC50 [5] of the same compound?
Answer: 0.84 µM

Question: And the IC50 [6]?
Answer: 2.9 µM

Question: And the IC50 ([7]; Table 4, 72 hours, read-out: IC50 KATO III)?
Answer: 0.8 µM

Question: And the IC50 ([7]; Table 6, read-out: IC50 (μM) KATO III)?
Answer: 3.86 µM

Question: And the “Cre (mg/dL) Ave. ± SD” value (Safety and toxicity test; 7 days after 1 mg iv, control 0.24 ± 0.15)?
Answer: 0.15 ± 0.02 mg/dL

Question: And the “T-Bil (mg/dL) Ave. ± SD” value (Safety and toxicity test; 7 days after 1 mg iv, control 0.47 ± 0.17)?
Answer: 0.33 ± 0.19 mg/dL

Question: And the “AST (U/L) Ave. ± SD” value (Safety and toxicity test; 7 days after 1 mg iv, control 65.0 ± 9.1)?
Answer: 62.0 ± 8.6 U/L

Question: And the “hematology and blood chemistry vs control group” value (Safety and toxicity test; Tables 12 and 13)?
Answer: no significant difference

Question: And the “body weight vs control group” value (Safety and toxicity test; after intravenous injection)?
Answer: no difference in body weight

Question: And the “local finding in the tails” value (Safety and toxicity test; after tail vein injection)?
Answer: no local abnormal finding

Question: What about the “AST (U/L)” value (Safety and toxicity test; [8]) of the same compound?
Answer: 63 U/L and 72 U/L and 51 U/L

Question: What about the “Cre” value (Safety and toxicity test; [8]) of the same compound?
Answer: 0.18 mg/dL and 0.14 mg/dL and 0.13 mg/dL

Question: And the “T-Bil” value (Safety and toxicity test; [8])?
Answer: 0.2 mg/dL (2×) and 0.6 mg/dL

Question: And the overall safety (Safety and toxicity test; mouse model)?
Answer: safe

Question: And the cytocidal effect (Kato III)?
Answer: cytocidal effect

Question: And the “proportion of Caspase 3-expressing cells” value (Caspase 3)?
Answer: 57.4±2.6%
